Experimental findings from ChEMBL document CHEMBL1201862, “PubChem BioAssay data set” (2004) are described below.

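Five concentrations, 48 hours, 96-well plates. The concentration for 50% growth inhibition is given as GI50.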 Calls of active or inactive are those of the source. No stated cut-off is given here; in the data, active = GI50 up to about 1.1 µM and inactive = higher. Where a SMILES comes first, the peptide text is derived from it. [ ]: non-standard residue; d: D form. The star is where a group is joined. ξ: configuration not given here. X38 = O=C(OCc1ccccc1)[C@@H]1CCC[C@H]1N*; Fmoc = O=C(OCC1c2ccccc2-c2ccccc21)*; ξW = NC(Cc1c[nH]c2ccccc12)C(=O)O; ξF = NC(Cc1ccccc1)C(=O)O; Boc = CC(C)(C)OC(=O)*; ξK = NCCCCC(N)C(=O)O; ξT = CC(O)C(N)C(=O)O; tBu = CC(C)(C)*; CH2Cl = ClC*

Some test systems named below: RXF 393; CAKI-1; 786-0; SF-295; RPMI-8226; SK-OV-3; SN12C; UO-31; HCC 2998; MDA-MB-231; IGROV-1; ACHN; OVCAR-3; DU-145; A498; SF-539; U-251; UACC-62; HL-60; Malme-3M.
Holding throughout (test): NCI-60 cell line screen, 48 h

Take `Cc1cc(S(=O)(=O)Nc2nnc3cc(C(F)(F)F)cc(C)n23)c(S)cc1Cl`: the GI50 with RXF 393 is > 100 µM (inactive); with CAKI-1 it was 97.5 µM (inactive); in the test with 786-0, > 80.5 µM (inactive); in the test on SF-295, 55.1 µM (inactive); in the test with RPMI-8226, > 100 µM (inactive); with SK-OV-3 it was 38.3 µM (inactive). The GI50 with SN12C is > 100 µM (inactive); in the test with UO-31 it was 39.1 µM (inactive); in the test on HCC 2998, 33.7 µM (inactive); in the test on MDA-MB-231 it was > 83 µM (inactive); with IGROV-1 it was > 100 µM (inactive); in the test on ACHN, > 100 µM (inactive). In addition, the GI50 was 64.1 µM (inactive) in the test on OVCAR-3; > 100 µM (inactive) in the test with DU-145; 18.9 µM (inactive) in the test with A498; 34.4 µM (inactive) in the test with SF-539; 29 µM (inactive) in the test on U-251; 56.4 µM (inactive) in the test with UACC-62. In addition, the GI50 in the test on HL-60 and with Malme-3M was > 100 µM (inactive) throughout.
In the case of `Nc1c(-c2ccc(Cl)c(Cl)c2)c2ccc([N+](=O)[O-])cc2c(=O)n1-c1nc2ccccc2s1`, the GI50 in the test on RXF 393 is 0.689 µM (active); in the test on CAKI-1 it was 0.719 µM (active); in the test with 786-0 it was 0.767 µM (active); in the test on SF-295, 0.551 µM (active); with RPMI-8226 it was 0.391 µM (active); with SK-OV-3 it was 0.689 µM (active). The GI50 is 0.335 µM (active) in the test on SN12C; 0.445 µM (active) in the test on UO-31; 18.6 µM (inactive) in the test on HCC 2998; 0.614 µM (active) in the test on MDA-MB-231; 0.796 µM (active) in the test on IGROV-1; 0.448 µM (active) with ACHN. Further, the GI50 in the test on OVCAR-3 was 0.382 µM (active); in the test with DU-145, 0.867 µM (active); with A498, 0.566 µM (active); in the test on SF-539 it was 2.65 µM (inactive); in the test on U-251, 0.425 µM (active); in the test on UACC-62, 0.419 µM (active). Further, the GI50 with HL-60 was 0.318 µM (active); with Malme-3M, 0.403 µM (active).
As to `Cc1n(Cc2ccccc2)c2c([n+]1C)C(=O)c1ccccc1C2=O`, the GI50 in the test on RXF 393 was 0.294 µM (active); with CAKI-1 it was 3.15 µM (inactive); with 786-0, 0.0845 µM (active); with SF-295, 0.199 µM (active); with RPMI-8226, 0.0296 µM (active); in the test on SK-OV-3 it was 0.389 µM (active). Further, the GI50 with SN12C is 0.0318 µM (active); in the test with UO-31, 4.57 µM (inactive); in the test with HCC 2998 it was 0.236 µM (active); with MDA-MB-231, 0.0583 µM (active); in the test with IGROV-1, 0.0301 µM (active); in the test with ACHN it was 0.873 µM (active). In addition, the GI50 with OVCAR-3 is < 0.0136 µM (active); in the test with DU-145, 0.156 µM (active); in the test with A498 it was 0.129 µM (active); in the test on SF-539, 0.026 µM (active); with U-251 it was 0.0324 µM (active); with UACC-62 it was 0.17 µM (active). Moreover, the GI50 was 0.0318 µM (active) with HL-60 and 0.0171 µM (active) with Malme-3M.
As to `COc1cc(C2c3cc4c(cc3OC(NN)C2C)OCO4)cc(OC)c1OC` (stereo not given), the GI50 in the test with RXF 393 is 0.593 µM (active); with CAKI-1, 3.36 µM (inactive); in the test on 786-0, 0.653 µM (active); in the test on SF-295, 0.406 µM (active); with RPMI-8226, 0.289 µM (active); in the test with SK-OV-3 it was 1.38 µM (inactive). Moreover, the GI50 in the test with SN12C is 0.757 µM (active); in the test with UO-31, 6.85 µM (inactive); in the test on HCC 2998, 0.536 µM (active); in the test on MDA-MB-231, 4.09 µM (inactive); in the test with IGROV-1, 1.46 µM (inactive); with ACHN it was 1.78 µM (inactive). Moreover, the GI50 was 0.265 µM (active) with OVCAR-3; 1.94 µM (inactive) in the test on DU-145; 0.257 µM (active) in the test with A498; 0.247 µM (active) in the test on SF-539; 0.403 µM (active) in the test with U-251; 0.495 µM (active) with UACC-62. In addition, the GI50 with HL-60 was 0.323 µM (active); in the test with Malme-3M it was 0.34 µM (active).
Consider `CC(=O)NC(CC(C)C)C(=O)NC(Cc1ccccc1)C(=O)CCl` (stereo not drawn) (Ac-Leu-Phe-CH2Cl; configuration not given here), for which the GI50 in the test on RXF 393 was 1.96 µM (inactive); in the test on CAKI-1, 17.4 µM (inactive); with 786-0, 4 µM (inactive); in the test on SF-295 it was 18.8 µM (inactive); with RPMI-8226, 2.69 µM (inactive); in the test with SK-OV-3, 18.1 µM (inactive). The GI50 with SN12C is 13.4 µM (inactive); in the test with UO-31 it was 14.6 µM (inactive); in the test with HCC 2998, 14.9 µM (inactive); in the test with MDA-MB-231, 12.1 µM (inactive); in the test with IGROV-1 it was 16.1 µM (inactive); in the test with ACHN it was 11.1 µM (inactive). The GI50 in the test with OVCAR-3 is 13.2 µM (inactive); with DU-145, 12.1 µM (inactive); with A498, 18.8 µM (inactive); in the test with SF-539, 18.1 µM (inactive); with U-251, 16.6 µM (inactive); in the test with UACC-62 it was 11.7 µM (inactive). The figures for the GI50 in the test with HL-60 and in the test on Malme-3M were 2.21 µM (inactive) and 5.05 µM (inactive), respectively.
With `CC(OC(C)(C)C)C(NC(=O)C(CCCCNC(=O)OC(C)(C)C)NC(=O)C(Cc1c[nH]c2ccccc12)NC(=O)C(Cc1ccccc1)NC(=O)OCC1c2ccccc2-c2ccccc21)C(=O)NC(Cc1ccccc1)C(=O)N[C@@H]1CCC[C@H]1C(=O)OCc1ccccc1` (stereo not given in full) (Fmoc-[ξF][ξW][ξK](Boc)[ξT](tBu)[ξF]-X38), the GI50 in the test with RXF 393 is > 100 µM (inactive); with CAKI-1, 62.2 µM (inactive); in the test on 786-0 it was > 100 µM (inactive); with SF-295, > 100 µM (inactive); in the test with RPMI-8226, > 100 µM (inactive); in the test on SK-OV-3 it was > 100 µM (inactive). Moreover, the GI50 was > 100 µM (inactive) in the test on SN12C; > 100 µM (inactive) in the test with UO-31; > 100 µM (inactive) in the test on HCC 2998; 65.3 µM (inactive) in the test on MDA-MB-231; > 100 µM (inactive) with IGROV-1; > 100 µM (inactive) in the test on ACHN. In addition, the GI50 in the test on OVCAR-3 was > 100 µM (inactive); with DU-145 it was > 100 µM (inactive); with A498 it was > 10 µM (inactive); with SF-539 it was > 100 µM (inactive); in the test on U-251 it was > 100 µM (inactive); with UACC-62, > 100 µM (inactive). For the same compound, the GI50 in the test on HL-60 and in the test with Malme-3M was > 100 µM (inactive) throughout.
